The values below come from ChEMBL document CHEMBL1131864, “Effects of sesquiterpenes and triterpenes from the rhizome of Alisma orientale on nitric oxide production in lipopolysaccharide-activated macrophages: absolute stereostructures of alismaketones-B 23-acetate and -C 23-acetate” (Bioorg Med Chem Lett, 1999).

The structures appear in SMILES notation.

What all share (assay type): functional
The species entered for experiment [1] is Mus musculus. The experiment is described as follows: Inhibition of nitric oxide production in LPS-activated mouse macrophages at a concentration of 30 uM.
The species named for experiment [2] is Mus musculus. The experiment is described as follows: Inhibition of nitric oxide production in LPS-activated mouse macrophages at a concentration of 3 uM.
The species named for experiment [3] is Mus musculus. Put plainly: Inhibition of nitric oxide production in LPS-activated mouse macrophages at a concentration of 10 uM.
For experiment [4], the species on record is Mus musculus. Put plainly: Concentration required for inhibition of nitric oxide production in LPS-activated mouse macrophages.
For experiment [5], the species on record is Mus musculus. The experiment is described as follows: Inhibition of nitric oxide production in LPS-activated mouse macrophages at a concentration of 1 uM.
The species named for experiment [6] is Mus musculus. Put plainly: Inhibition of nitric oxide production in LPS-activated mouse macrophages at a concentration of 100 uM.

Take `C[C@H](C[C@H](O)[C@@H](O)C(C)(C)O)C1=C2C[C@H](O)C3[C@@]4(C)CCC(=O)C(C)(C)C4CC[C@]3(C)[C@@]2(C)CC1` (stereo not given in full): the inhibition – broadly, the relative decrease from the control value, in per cent – at 30 µM in the experiment listed under Mus musculus [1] worked out at 84.2%. Also, in the experiment filed under Mus musculus [2], the inhibition at 3 µM was determined as 21.4%. Also, the inhibition at 10 µM in the experiment filed under Mus musculus [3] worked out at 26.2%. In addition, the IC50 (as a rule, the concentration that gives 50% inhibition) in the experiment filed under Mus musculus [4] was over 10 µM. Besides, the inhibition at 1 µM in the experiment listed under Mus musculus [5] is 0.2%. In addition, the inhibition at 100 µM in the experiment listed under Mus musculus [6] is 114%.

As to `C[C@@H]1CC([C@H]2OC2(C)C)OC2C[C@@]3(C)C(=C21)CCC1[C@@]2(C)CCC(=O)C(C)(C)C2CC[C@@]13C` (stereo not given in full), the inhibition at 30 µM in the experiment listed under Mus musculus [1] was 84.2%. For the same compound, in the experiment filed under Mus musculus [2], the inhibition at 3 µM was 21.7%. Further, the inhibition at 10 µM in the experiment filed under Mus musculus [3] came out at 31.2%. In the experiment listed under Mus musculus [4], this compound yielded an IC50 of 12 µM. In the experiment listed under Mus musculus [5], the inhibition at 1 µM is -5.1%. For the same compound, the inhibition at 100 µM in the experiment listed under Mus musculus [6] came out at 100%.

Turning to `CC(C)C1=CC2C(CC[C@]2(C)O)[C@@](O)(CS(=O)(=O)O)CC1` (stereo not given in full), in the experiment filed under Mus musculus [1], the inhibition at 30 µM turned out to be 16.3%. The inhibition at 3 µM in the experiment listed under Mus musculus [2] was -2.2%. Further, in the experiment filed under Mus musculus [3], the inhibition at 10 µM is 4.9%. The IC50 in the experiment filed under Mus musculus [4] was over 100 µM. Also, in the experiment listed under Mus musculus [5], the inhibition at 1 µM is 2.8%. The inhibition at 100 µM in the experiment listed under Mus musculus [6] is 21.3%.

On to `CC(C)C1=CC2C(CC[C@]2(C)O)[C@](C)(O)CC1` (stereo not given in full), for which, in the experiment listed under Mus musculus [1], the inhibition at 30 µM was determined as 12%. Also, in the experiment listed under Mus musculus [2], the inhibition at 3 µM was -1.8%. The inhibition at 10 µM in the experiment listed under Mus musculus [3] was 0.4%. In the experiment listed under Mus musculus [4], the IC50 was over 100 µM. Also, in the experiment listed under Mus musculus [5], the inhibition at 1 µM was -2.5%. In the experiment listed under Mus musculus [6], the inhibition at 100 µM was 33.1%.

In the case of `CC(=O)O[C@@H](C[C@@H](C)C1=C2C[C@H](O)C3[C@@]4(C)CCC(=O)C(C)(C)C4CC[C@]3(C)[C@@]2(C)CC1=O)[C@H]1OC1(C)C` (stereo not given in full), the inhibition at 30 µM in the experiment listed under Mus musculus [1] amounted to 43.8%. For the same compound, in the experiment filed under Mus musculus [2], the inhibition at 3 µM was 13.3%. Besides, the inhibition at 10 µM in the experiment listed under Mus musculus [3] is 21.1%. The same compound gave an IC50 in the experiment filed under Mus musculus [4] of 42 µM. For the same compound, the inhibition at 1 µM in the experiment filed under Mus musculus [5] was 2.9%. Moreover, the inhibition at 100 µM in the experiment listed under Mus musculus [6] is 67.3%.

With `CC(C)[C@]12CC[C@](C)(O1)C1CC[C@](C)(S(=O)(=O)O)C1[C@@H]2O` (stereo not given in full), the inhibition at 30 µM in the experiment listed under Mus musculus [1] stood at 12.6%. In addition, the inhibition at 3 µM in the experiment filed under Mus musculus [2] is -2.1%. The inhibition at 10 µM in the experiment filed under Mus musculus [3] is 4.3%. The IC50 in the experiment filed under Mus musculus [4] was over 100 µM. Further, in the experiment filed under Mus musculus [5], the inhibition at 1 µM stood at 3.3%. Besides, the inhibition at 100 µM in the experiment listed under Mus musculus [6] is 24.7%.

As for `CC(=O)O[C@@H](C[C@@H](C)[C@]12O[C@H]1C[C@@]1(C)C2=CC(=O)C2[C@@]3(C)CCC(=O)C(C)(C)C3CC[C@@]21C)[C@H]1OC1(C)C` (stereo not given in full), the inhibition at 30 µM in the experiment filed under Mus musculus [1] worked out at 83.6%. Besides, in the experiment listed under Mus musculus [2], the inhibition at 3 µM came out at 11.9%. Moreover, the inhibition at 10 µM in the experiment listed under Mus musculus [3] worked out at 31.1%. Moreover, the half-inhibitory concentration (IC50) in the experiment filed under Mus musculus [4] is over 10 µM. The inhibition at 1 µM in the experiment listed under Mus musculus [5] was found to be 9.9%. In addition, the inhibition at 100 µM in the experiment filed under Mus musculus [6] was 114%.

Turning to `CC(=O)O[C@@H](C[C@@H](C)C1=C2[C@H](O)[C@H](O)C3[C@@]4(C)CCC(=O)C(C)(C)C4CC[C@]3(C)[C@@]2(C)CC1=O)[C@H]1OC1(C)C` (stereo not given in full), in the experiment listed under Mus musculus [1], the inhibition at 30 µM came to 86.3%. Moreover, the inhibition at 3 µM in the experiment filed under Mus musculus [2] came to 29.7%. Moreover, in the experiment listed under Mus musculus [3], the inhibition at 10 µM was 50.8%. The IC50 in the experiment filed under Mus musculus [4] turned out to be 9.3 µM. The inhibition at 1 µM in the experiment listed under Mus musculus [5] is 19%. In addition, the inhibition at 100 µM in the experiment filed under Mus musculus [6] came out at 104%.

As for `C[C@@H]1CC([C@@H](O)C(C)(C)O)OC2C[C@@]3(C)C(=C21)C[C@H](O)C1[C@@]2(C)CCC(=O)C(C)(C)C2CC[C@@]13C` (stereo not given in full), the inhibition at 30 µM in the experiment filed under Mus musculus [1] worked out at 69.6%. Besides, in the experiment listed under Mus musculus [2], the inhibition at 3 µM amounted to 14.8%. The inhibition at 10 µM in the experiment filed under Mus musculus [3] is 40.3%. In the experiment listed under Mus musculus [4], this compound registered an IC50 of 15 µM. In the experiment listed under Mus musculus [5], the inhibition at 1 µM stood at 7.5%. Moreover, in the experiment listed under Mus musculus [6], the inhibition at 100 µM is 99.5%.

Take `CC(=O)O[C@@H](C[C@@H](C)C1=C2C[C@@H]3OC(=O)C[C@@]4(C)C(C(C)(C)C(=O)O)CC[C@@](C)(C34)[C@@]2(C)CC1)[C@H]1OC1(C)C` (stereo not given in full): the inhibition at 30 µM in the experiment filed under Mus musculus [1] came out at 65.6%. Moreover, the inhibition at 3 µM in the experiment filed under Mus musculus [2] stood at 23.2%. In the experiment listed under Mus musculus [3], the inhibition at 10 µM amounted to 38.2%. The same compound displayed an IC50 in the experiment filed under Mus musculus [4] of 16 µM. For the same compound, the inhibition at 1 µM in the experiment listed under Mus musculus [5] turned out to be 10.3%. For the same compound, the inhibition at 100 µM in the experiment listed under Mus musculus [6] turned out to be 90.7%.
